This assay has as its target T1, human Oxytocin (OTR) receptor (Homo sapiens, UniProt P30559).
T1 construct: expressed in transfected cells
T1 sequence (P30559 1-389): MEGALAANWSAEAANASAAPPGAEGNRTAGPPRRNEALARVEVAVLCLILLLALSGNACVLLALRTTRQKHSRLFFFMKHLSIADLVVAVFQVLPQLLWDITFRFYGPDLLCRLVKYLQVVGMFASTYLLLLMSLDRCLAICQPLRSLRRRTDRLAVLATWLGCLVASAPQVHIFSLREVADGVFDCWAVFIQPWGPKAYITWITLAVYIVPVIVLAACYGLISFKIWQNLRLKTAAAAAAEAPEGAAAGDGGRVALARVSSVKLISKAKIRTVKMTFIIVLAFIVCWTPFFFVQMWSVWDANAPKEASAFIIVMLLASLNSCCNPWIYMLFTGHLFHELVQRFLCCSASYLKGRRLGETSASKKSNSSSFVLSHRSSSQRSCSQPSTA
The assay is described as follows: Calcium flux assay (FLIPR) in CHO cells expressing human OTR. It counts as cell-based. To be noted: for Emax: CHO, maximum response normalized to endogenous full agonist = 100%, read-out: hOT efficacy; for EC50: agonist mode, CHO cells, calcium flux FLIPR, read-out: hOT EC50. The text has this:
Chines Hamster Ovary (CHO) cells were transfected with expression plasmids encoding either the human Vla, the human Oxytocin (OTR) or the humanV2 receptor, the later in combination with the chimeric Gqs5 G protein to redirect the signal to Calcium flux. Stable cells were cloned by limiting dilution to yield monoclonal cell lines expressing either human Vla, human V2+Gqs5 or human OTR receptors and selected based on functional responses detected on a fluorometric imaging plate reader (FLIPR) detecting Calcium flux in the cell after receptor activation. The stable cell lines were grown in F-12 K Nutrient Mixture (Kaighns Modification), containing 10% foetal bovine serum (FBS), 1% penicillin-streptomycin, 1% L-glutamate, 200 ug/ml Geneticin at 37° C. in a 10% CO2 incubator at 95% humidity.
Calcium Flux Assays Using Fluorescent Imaging (Fluorometric Imaging Plate Reader, FLIPR)
On the afternoon before the assay, cells were plated at a density of 50,000 cells/well into black 96 well plates with clear bottoms to allow cell inspection and fluorescence measurements from the bottom of each well. The density of cells was sufficient to yield a confluent monolayer the next day. Hanks balanced salt solution, without phenol red, containing 20 mM HEPES (pH 7.3) and 2.5 mM probenecid (assay buffer) was prepared fresh for each experiment. Compound dilutions were made using a Beckman Biomek 2000 laboratory automation workstation, in assay buffer containing 1% DMSO. The dye-loading buffer consisted of a final concentration of 2 μM Fluo-4-AM (dissolved in DMSO and pluronic acid) in assay buffer. The existing culture media was removed from the wells and 100 μl of the dye-loading buffer was added to each well and incubated for approximately 60 min at 37° C. in a 5% CO2 incubator at 95% humidity. Once dye-loaded, the cells were washed thoroughly on an Embla cell washer with the assay buffer to remove any unincorporated dye. Exactly 100 μl assay buffer was left in each well.
Each 96 well plate containing dye-loaded cells was placed into the FLIPR machine and the laser intensity set to a suitable level to detect low basal fluorescence. To test compounds as agonists, 25 μl diluted compound was added to the plate 10 seconds into the fluorescent measurements and fluorescent response was recorded for 5 minutes. The fluorescence data was normalized to the endogenous full agonist dose-response set at 100% for the maximum response and 0% for the minimum. Each agonist concentration-response curve was constructed using a four parameter logistic equation with Microsoft Excel XLFit as follows: Y=Minimum+((Maximum−Minimum)/(1+10^(LogEC50−X)nH)), where y is the % normalized fluorescence, minimum is the minimum y, maximum is the maximum y, log EC50 is the log10 concentration which produces 50% of the maximum induced fluorescence, x is the log10 of the concentration of the agonist compound and H is the slope of the curve (the Hill Coefficient). The maximum value gives the efficacy of the agonist test compound in percentage. The concentration of agonist that produced a half-maximal response is represented by the EC50 value, the logarithm of which yielded the pEC50 value.
A general note: A change in cytosolic calcium serves as a functional read-out for many receptors and channels.

Where a SMILES comes first, the peptide text is derived from it.

The record followed here is patent US20170081368A1, “PEPTIDES AS OXYTOCIN AGONISTS” (Hoffmann-La Roche Inc., priority 2014, published 2017).

For orientation: EC50 means the concentration giving half of the maximal effect.

As for `CC[C@H](C)[C@@H]1NC(=O)[C@H](Cc2ccc(O)cc2)NC(=O)CCS(=O)(=O)CC[C@@H](C(=O)N2CC(F)(F)C[C@H]2C(=O)N[C@@H](CC(C)C)C(=O)NCC(N)=O)NC(=O)[C@H](CC(N)=O)NC(=O)[C@H](CCC(N)=O)NC1=O` [Example 3] (HELM PEPTIDE1{Y.I.Q.N.[O=C([C@H](CCS(=O)(=O)CCC(=O)[*:3])N[*:1])[*:2]].[O=C([C@@H]1CC(F)(F)CN1[*:1])[*:2]].L.G.[am]}$PEPTIDE1,PEPTIDE1,1:R1-5:R3$$$V2.0), the Emax came out at 144% and the EC50 is 1.7 nM.
As for `CC[C@H](C)[C@@H]1NC(=O)[C@H](Cc2ccc(O)cc2)NC(=O)CCS(=O)(=O)CC[C@@H](C(=O)N2CC[C@H]2C(=O)N[C@@H](CC(C)C)C(=O)NCC(N)=O)NC(=O)[C@H](CC(N)=O)NC(=O)[C@H](CCC(N)=O)NC1=O` [Example 4] (HELM PEPTIDE1{Y.I.Q.N.[O=C([C@H](CCS(=O)(=O)CCC(=O)[*:3])N[*:1])[*:2]].[O=C([C@@H]1CCN1[*:1])[*:2]].L.G.[am]}$PEPTIDE1,PEPTIDE1,1:R1-5:R3$$$V2.0), the Emax came out at 128% and the EC50 came to 3 nM.
With `CC[C@H](C)[C@@H]1NC(=O)[C@H](Cc2ccc(O)cc2)NC(=O)CCS(=O)(=O)CC[C@@H](C(=O)N2CCCC[C@H]2C(=O)N[C@@H](CC(C)C)C(=O)NCC(N)=O)NC(=O)[C@H](CC(N)=O)NC(=O)[C@H](CCC(N)=O)NC1=O` [Example 5] (HELM PEPTIDE1{Y.I.Q.N.[O=C([C@H](CCS(=O)(=O)CCC(=O)[*:3])N[*:1])[*:2]].[O=C([C@@H]1CCCCN1[*:1])[*:2]].L.G.[am]}$PEPTIDE1,PEPTIDE1,1:R1-5:R3$$$V2.0), the Emax came out at 130% and the concentration for a half-maximal effect (EC50) was 3.8 nM.
With `CC[C@H](C)[C@@H]1NC(=O)[C@H](Cc2ccc(O)cc2)NC(=O)CCS(=O)(=O)CC[C@@H](C(=O)N2C[C@@H](F)C[C@H]2C(=O)N[C@@H](CC(C)C)C(=O)NCC(N)=O)NC(=O)[C@H](CC(N)=O)NC(=O)[C@H](CCC(N)=O)NC1=O` [Example 6] (HELM PEPTIDE1{Y.I.Q.N.[O=C([C@H](CCS(=O)(=O)CCC(=O)[*:3])N[*:1])[*:2]].[O=C([C@@H]1C[C@H](F)CN1[*:1])[*:2]].L.G.[am]}$PEPTIDE1,PEPTIDE1,1:R1-5:R3$$$V2.0; C-terminus assumed; bridges inferred), the Emax was 145%.
Regarding `CC[C@H](C)[C@@H]1NC(=O)[C@H](Cc2ccc(O)cc2)NC(=O)CCS(=O)(=O)CC[C@@H](C(=O)N2C[C@@H](F)C[C@H]2C(=O)N[C@@H](CC(C)C)C(=O)NCC(N)=O)NC(=O)[C@H](CC(N)=O)NC(=O)[C@H](CCC(N)=O)NC1=O` [Example 7] (HELM PEPTIDE1{Y.I.Q.N.[O=C([C@H](CCS(=O)(=O)CCC(=O)[*:3])N[*:1])[*:2]].[O=C([C@@H]1C[C@H](F)CN1[*:1])[*:2]].L.G.[am]}$PEPTIDE1,PEPTIDE1,1:R1-5:R3$$$V2.0), the Emax was found to be 141% and the EC50 turned out to be 2.6 nM.
As for `CC[C@H](C)[C@@H]1NC(=O)[C@H](Cc2ccc(O)cc2)NC(=O)CCS(=O)(=O)CC[C@@H](C(=O)N2C[C@H](O)C[C@H]2C(=O)N[C@@H](CC(C)C)C(=O)NCC(N)=O)NC(=O)[C@H](CC(N)=O)NC(=O)[C@H](CCC(N)=O)NC1=O` [Example 8] (HELM PEPTIDE1{Y.I.Q.N.[O=C([C@H](CCS(=O)(=O)CCC(=O)[*:3])N[*:1])[*:2]].[Hyp].L.G.[am]}$PEPTIDE1,PEPTIDE1,1:R1-5:R3$$$V2.0), the Emax was determined as 129% and the EC50 was 0.8 nM.
With `CCCC[C@H](NC(=O)CN(C)C(=O)[C@@H]1CCS(=O)(=O)CCC(=O)N[C@@H](Cc2ccc(O)cc2)C(=O)N[C@@H]([C@@H](C)CC)C(=O)N[C@@H](CCC(N)=O)C(=O)N[C@@H](CC(N)=O)C(=O)N1)C(=O)NCC(N)=O` [Example 9] (HELM PEPTIDE1{Y.I.Q.N.[O=C([C@H](CCS(=O)(=O)CCC(=O)[*:3])N[*:1])[*:2]].[Sar].[Nle].G.[am]}$PEPTIDE1,PEPTIDE1,1:R1-5:R3$$$V2.0), the Emax is 104% and the EC50 turned out to be 1 nM.
Consider `CC[C@H](C)[C@@H]1NC(=O)[C@H](Cc2ccc(O)cc2)NC(=O)CCS(=O)(=O)CC[C@@H](C(=O)N(C)CC(=O)NC(C)(C)C(=O)NCC(N)=O)NC(=O)[C@H](CC(N)=O)NC(=O)[C@H](CCC(N)=O)NC1=O` [Example 10] (HELM PEPTIDE1{Y.I.Q.N.[O=C([C@H](CCS(=O)(=O)CCC(=O)[*:3])N[*:1])[*:2]].[Sar].[Aib].G.[am]}$PEPTIDE1,PEPTIDE1,1:R1-5:R3$$$V2.0; C-terminus assumed; bridges inferred), for which the Emax worked out at 100%.
As to `CC[C@H](C)[C@@H]1NC(=O)[C@H](Cc2ccc(O)cc2)NC(=O)CCS(=O)(=O)CC[C@@H](C(=O)N(C)CC(=O)N[C@@H](CC2CCCCC2)C(=O)NCC(N)=O)NC(=O)[C@H](CC(N)=O)NC(=O)[C@H](CCC(N)=O)NC1=O` [Example 11] (HELM PEPTIDE1{Y.I.Q.N.[O=C([C@H](CCS(=O)(=O)CCC(=O)[*:3])N[*:1])[*:2]].[Sar].[Cha].G.[am]}$PEPTIDE1,PEPTIDE1,1:R1-5:R3$$$V2.0; C-terminus assumed; bridges inferred), the Emax turned out to be 115%.
For the molecule `CC[C@H](C)[C@@H]1NC(=O)[C@H](Cc2ccc(O)cc2)NC(=O)CCS(=O)(=O)CC[C@@H](C(=O)N(C)CC(=O)N[C@H](C(=O)NCC(N)=O)C(C)C)NC(=O)[C@H](CC(N)=O)NC(=O)[C@H](CCC(N)=O)NC1=O` [Example 12] (HELM PEPTIDE1{Y.I.Q.N.[O=C([C@H](CCS(=O)(=O)CCC(=O)[*:3])N[*:1])[*:2]].[Sar].V.G.[am]}$PEPTIDE1,PEPTIDE1,1:R1-5:R3$$$V2.0), the Emax turned out to be 112% and the EC50 was 1.4 nM.
For `CC[C@H](C)[C@H](NC(=O)CN(C)C(=O)[C@@H]1CCS(=O)(=O)CCC(=O)N[C@@H](Cc2ccc(O)cc2)C(=O)N[C@@H]([C@@H](C)CC)C(=O)N[C@@H](CCC(N)=O)C(=O)N[C@@H](CC(N)=O)C(=O)N1)C(=O)NCC(N)=O` [Example 13] (HELM PEPTIDE1{Y.I.Q.N.[O=C([C@H](CCS(=O)(=O)CCC(=O)[*:3])N[*:1])[*:2]].[Sar].I.G.[am]}$PEPTIDE1,PEPTIDE1,1:R1-5:R3$$$V2.0; C-terminus assumed; bridges inferred), the Emax worked out at 117%.
As for `CCC[C@H](NC(=O)CN(C)C(=O)[C@@H]1CCS(=O)(=O)CCC(=O)N[C@@H](Cc2ccc(O)cc2)C(=O)N[C@@H]([C@@H](C)CC)C(=O)N[C@@H](CCC(N)=O)C(=O)N[C@@H](CC(N)=O)C(=O)N1)C(=O)NCC(N)=O` [Example 14] (HELM PEPTIDE1{Y.I.Q.N.[O=C([C@H](CCS(=O)(=O)CCC(=O)[*:3])N[*:1])[*:2]].[Sar].[Nva].G.[am]}$PEPTIDE1,PEPTIDE1,1:R1-5:R3$$$V2.0; C-terminus assumed; bridges inferred), the Emax came to 117% and the EC50 was 0.7 nM.
Consider `CC[C@H](C)[C@@H]1NC(=O)[C@H](Cc2ccc(O)cc2)NC(=O)CCS(=O)(=O)CC[C@@H](C(=O)N(C)CC(=O)N[C@@H](CCC(C)C)C(=O)NCC(N)=O)NC(=O)[C@H](CC(N)=O)NC(=O)[C@H](CCC(N)=O)NC1=O` [Example 15] (HELM PEPTIDE1{Y.I.Q.N.[O=C([C@H](CCS(=O)(=O)CCC(=O)[*:3])N[*:1])[*:2]].[Sar].[CC(C)CC[C@H](N[*:1])C(=O)[*:2]].G.[am]}$PEPTIDE1,PEPTIDE1,1:R1-5:R3$$$V2.0), for which the Emax stood at 107% and the EC50 is 1 nM.
